Data set [1] is described as follows: Concentration studies: loading of complex in aqueous solution. Type of data set: physicochemical. As for the experimental part:
3.29 g silver nitrate was dissolved in 4.71 g demineralised water to produce a silver nitrate solution. 2.58 g copper sulphate pentahydrate was dissolved in 16.09 g demineralised water to produce a copper sulphate solution. Silver nitrate solution was added to the DPTA solution with vigorous stirring. […] Copper sulphate solution was added to the white dispersion.
2.39 g silver nitrate was dissolved in 4.61 g demineralised water to produce a silver nitrate solution. 2.08 g zinc sulphate monohydrate was dissolved in 15.92 g demineralised water to produce a zinc sulphate solution. […] Zinc sulphate solution was added to the white dispersion.
0.24 g silver nitrate (AgNO3) was dissolved in 3.26 g demineralised water to produce a silver nitrate solution. 0.66 g aluminium sulphate hexadecahydrate (Al2H32O28S3) was dissolved in 8.34 g demineralised water to produce an aluminium sulphate solution. […] Aluminium sulphate solution was added to the white dispersion.
Silver nitrate solution was formed by dissolving 0.24 g silver nitrate (AgNO3) in 3.26 g demineralised water.

For data set [2], the system named is C. albican (ATCC 10231). As to the kind of experiment: MIC measurement (adapted CLSI M07-A11 broth dilution). In kind it is cell-based. As to conditions: MHB, overnight 37° C. As for the experimental part:
(§1) MIC measurements were performed using an adapted method described in the Clinical and Laboratory Standards Institute (CLSI) guidelines M07-A11. Compounds were serial diluted two-fold in Mueller Hinton Broth (MHB) in 96 well plates. A positive growth control and a negative growth control were also included in the well plates.
(§2) A colony suspension of S. aureus (ATCC 29213), P. aeruginosa (ATCC 15442) and C. albican was prepared by taking several colonies from a fresh agar plate and suspending them in MHB. The suspension was adjusted to 0.5 McFarland (~1 × 10^8 CFU/mL) and diluted 1:100. The inoculum was then added to wells at a final concentration of […]. Plates were incubated overnight at 37° C. The following day, MICs were determined as the lowest concentration that no growth could be visually observed.
Background: In broth dilution the organism is exposed to a series of concentrations in liquid medium.

The subject of data set [3] is P. aeruginosa (ATCC 15442). The data set is described as above. As to conditions: for MIC: P. aeruginosa (ATCC 15442), MHB, overnight 37° C. Type of data set: cell-based. As for the experimental part:
as §1, §2
(§3) An 80 mg/ml solution of T-EDTA was prepared by dissolving T-EDTA (99% pure, Acros Organics) in sterile distilled water. The pH of this solution was measured at 10.5, using a pH electrode. A 16 mg/ml solution of DTPA was prepared by dissolving DTPA (98%+ Acros Organics) in distilled water, and adjusting pH to 10.5 using the addition of sodium hydroxide.

The test system of data set [4] is S. aureus (ATCC 29213). Described as above. In kind it is cell-based. As to conditions: for MIC: S. aureus (ATCC 29213), MHB, overnight 37° C. As for the experimental part:
as §1, §2, §3

Setting [5] is: clear aqueous solution as prepared.

Converted amounts (≈) assume the structure as drawn.

By MIC is commonly meant the smallest concentration in the dilution series that meets the test's criterion for growth inhibition. Higher therefore signals a less susceptible organism. For `O=C([O-])CN(CCN(CC(=O)[O-])CC(=O)[O-])CCN(CC(=O)[O-])CC(=O)[O-].[Ag+].[Ag+].[Al+3]` [Ag2Al(DTPA)], the “theoretical concentration of the complex in solution” value in data set [1] (setting [5]) turned out to be 2.9%. The minimum inhibitory concentration (MIC) turned out to be 530 µg/mL in data set [2], 450 µg/mL in data set [3] and 370 µg/mL in data set [4].

As to `O=C([O-])CN(CCN(CC(=O)[O-])CC(=O)[O-])CC(=O)[O-].[Ag+].[Ag+].[Cu+2]` [Ag2Cu(EDTA), reference compound], the minimal inhibitory concentration (MIC) in data set [3] came to 6 µg/mL; in data set [4] it was 98 µg/mL.

Take Ag3Cu(DTPA) [Ag3Cu(DPTA)]: the “total soluble solids content of the solution” value in data set [1] (clear aqueous solution of the complex as prepared) is 22.5 % w/w. For the same molecule, the results for the minimum inhibitory concentration (MIC) in data set [3] and in data set [4] were 1.6 µg/mL and 6 µg/mL, respectively. Moreover, the “increase in potency (MIC) versus prior art compound Ag2Cu(EDTA)” value in data set [3] (P. aeruginosa, versus Ag2Cu(EDTA)) is on record as “approximately 4 fold”; in data set [4] (S. aureus, versus Ag2Cu(EDTA)), “approximately 16 fold”.

`O=C(O)CN(CCN(CC(=O)O)CC(=O)O)CCN(CC(=O)O)CC(=O)O` [DTPA, diethylenetriaminepentaacetic acid, reference compound]: the MIC in data set [3] is 2000 µg/mL (≈ 5.08 mM); in data set [4], 1000 µg/mL (≈ 2.54 mM). Also, the “increase in potency (MIC) compared to uncomplexed T-EDTA” value is 2.5 fold in data set [3] (P. aeruginosa, versus uncomplexed T-EDTA) and 1.25 fold in data set [4] (S. aureus, versus uncomplexed T-EDTA).

With `O=C([O-])CN(CCN(CC(=O)[O-])CC(=O)[O-])CCN(CC(=O)[O-])CC(=O)[O-].[Ag+].[Ag+].[Bi+3]` [Ag2Bi(DTPA), Ag2Bi(DPTA)], the “theoretical concentration of the complex in solution” value in data set [1] (setting [5]) is 0.02 mol/kg. Further, the “theoretical total solids concentration” value in data set [1] (setting [5]) was found to be 9.7%. The MIC came to 11 µg/mL in data set [2], 94 µg/mL in data set [3] and 190 µg/mL in data set [4].
